Test results reported in the supplement of paper PMC10307832.

Assays:
Assay in all cases: relative viability (nuclei count vs DMSO), 5 days (fraction); higher = more cells survive
Idelalisib + Foretinib = compound: CC[C@H](Nc1ncnc2[nH]cnc12)c1nc2cccc(F)c2c(=O)n1-c1ccccc1 [Idelalisib] + COc1cc2c(Oc3ccc(NC(=O)C4(C(=O)Nc5ccc(F)cc5)CC4)cc3F)ccnc2cc1OCCCN1CCOCC1 [Foretinib] (partner 0.25 µM)
How it was run: (§1)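 Relative viability equals treated-well nuclei counts divided by vehicle-well nuclei counts. Counts came from 4× images of lung cancer cell lines grown in 1536-well plates for 5 days after pin-tool dosing on the day after seeding. Dosing used one drug alone or a fixed anchor-drug dose plus five library-drug doses (not always all listed) in √10 steps, and values are medians of duplicate plates.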

Idelalisib + Pictilisib = compound: CC[C@H](Nc1ncnc2[nH]cnc12)c1nc2cccc(F)c2c(=O)n1-c1ccccc1 [Idelalisib] + CS(=O)(=O)N1CCN(Cc2cc3nc(-c4cccc5[nH]ncc45)nc(N4CCOCC4)c3s2)CC1 [Pictilisib] (partner 1 µM)
How it was run: as §1

Pemetrexed + Alpelisib = compound: Nc1nc2[nH]cc(CCc3ccc(C(=O)N[C@@H](CCC(=O)O)C(=O)O)cc3)c2c(=O)[nH]1 [Pemetrexed] + Cc1nc(NC(=O)N2CCC[C@H]2C(N)=O)sc1-c1ccnc(C(C)(C)C(F)(F)F)c1 [Alpelisib] (partner 2 µM)
How it was run: as §1

Pemetrexed + Dasatinib = compound: Nc1nc2[nH]cc(CCc3ccc(C(=O)N[C@@H](CCC(=O)O)C(=O)O)cc3)c2c(=O)[nH]1 [Pemetrexed] + Cc1nc(Nc2ncc(C(=O)Nc3c(C)cccc3Cl)s2)cc(N2CCN(CCO)CC2)n1 [Dasatinib] (partner 0.075 µM)
How it was run: as §1

Row | Cell Line | relative viability (Idelalisib + Foretinib; first compound 0.04 µM) | relative viability (Idelalisib + Foretinib; first compound 0.1265 µM) | relative viability (Idelalisib + Foretinib; first compound 0.4 µM) | relative viability (Idelalisib + Foretinib; first compound 1.265 µM) | relative viability (Idelalisib + Foretinib; first compound 4 µM) | relative viability (Idelalisib + Pictilisib; first compound 0.04 µM) | relative viability (Idelalisib + Pictilisib; first compound 0.1265 µM) | relative viability (Idelalisib + Pictilisib; first compound 0.4 µM) | relative viability (Idelalisib + Pictilisib; first compound 1.265 µM) | relative viability (Idelalisib + Pictilisib; first compound 4 µM) | relative viability (Pemetrexed + Alpelisib; first compound 0.002 µM) | relative viability (Pemetrexed + Alpelisib; first compound 0.006325 µM) | relative viability (Pemetrexed + Alpelisib; first compound 0.02 µM) | relative viability (Pemetrexed + Alpelisib; first compound 0.06325 µM) | relative viability (Pemetrexed + Alpelisib; first compound 0.2 µM) | relative viability (Pemetrexed + Dasatinib; first compound 0.002 µM) | relative viability (Pemetrexed + Dasatinib; first compound 0.006325 µM) | relative viability (Pemetrexed + Dasatinib; first compound 0.02 µM) | relative viability (Pemetrexed + Dasatinib; first compound 0.06325 µM) | relative viability (Pemetrexed + Dasatinib; first compound 0.2 µM)
1 | NCI-H650 | 1.05 | 1.05 | 0.948 | 1.05 | 1 | 0.849 | 0.858 | 0.907 | 0.819 | 0.783 | 1.17 | 0.999 | 1.11 | 0.956 | 1.09 | 0.408 | 0.469 | 0.431 | 0.444 | 0.481
2 | IA-LM | 1.17 | 1.41 | 1.24 | 1.31 | 1.19 | 0.275 | 0.344 | 0.358 | 0.445 | 0.296 | 0.797 | 0.716 | 0.737 | 0.771 | 0.67 | – | – | – | – | –
3 | A-427 | 1.27 | 0.946 | 0.962 | 1.04 | 1.06 | 0.871 | 0.789 | 0.826 | 0.743 | 0.724 | 1.09 | 1.1 | 1.05 | 1.1 | 1.04 | 0.618 | 0.696 | 0.711 | 0.689 | 0.664
4 | NCI-H2347 | 0.845 | 0.701 | 0.818 | 1.12 | 0.664 | 0.398 | 0.69 | 0.487 | 0.623 | 0.756 | 0.858 | 0.893 | 1.07 | 0.869 | 0.633 | 0.269 | 0.169 | 0.351 | 0.319 | 0.272
5 | NCI-H1793 | 0.764 | 0.54 | 0.381 | 0.685 | 0.409 | 0.306 | 0.355 | 0.307 | 0.312 | 0.296 | 0.672 | 0.692 | 0.83 | 0.624 | 0.677 | 0.312 | 0.294 | 0.46 | 0.375 | 0.412
6 | NCI-H1651 | 0.761 | 0.799 | 0.702 | 0.735 | 0.561 | 0.685 | 0.574 | 0.523 | 0.762 | 0.625 | 0.951 | 0.948 | 0.939 | 0.952 | 0.93 | 0.388 | 0.357 | 0.439 | 0.346 | 0.428
7 | HCC-78 | 0.612 | 0.594 | 0.462 | 0.528 | 0.434 | 0.222 | 0.208 | 0.206 | 0.21 | 0.228 | – | 0.316 | 0.324 | 0.228 | 0.174 | 0.305 | 0.453 | 0.363 | 0.241 | 0.246
8 | NCI-H23 | 1.2 | 1.1 | 0.766 | – | 0.859 | 0.689 | 0.489 | 0.381 | 0.451 | 0.462 | 0.666 | 0.532 | 0.741 | 0.503 | 0.601 | 0.783 | 0.762 | 0.933 | 0.74 | 0.781
9 | LOU-NH91 | 1.03 | 0.912 | 0.888 | 0.803 | 0.864 | 0.532 | 0.478 | 0.509 | 0.504 | 0.575 | 0.711 | 0.757 | 0.745 | 0.632 | 0.529 | 0.495 | 0.576 | 0.599 | 0.457 | 0.345
10 | LXF-289 | 0.946 | 0.979 | 0.928 | 1.14 | 0.951 | 0.894 | 0.78 | 0.722 | 0.873 | 0.745 | 1.04 | 1 | 1.07 | 1.05 | 0.969 | 0.175 | 0.192 | 0.239 | 0.281 | 0.217
11 | NCI-H460 | 1.03 | 1.06 | 0.962 | 1 | 0.896 | 0.363 | 0.318 | 0.315 | 0.36 | 0.359 | 0.479 | 0.344 | 0.518 | 0.151 | 0.0576 | 0.357 | 0.536 | 0.524 | 0.406 | 0.101
12 | NCI-H1792 | – | – | – | – | – | 0.279 | 0.251 | 0.268 | 0.275 | 0.249 | 0.685 | 0.731 | 0.806 | 0.788 | 0.634 | 0.782 | 0.789 | 0.938 | 0.747 | 0.81
13 | EMC-BAC-2 | 0.972 | 0.988 | 0.963 | 0.868 | 0.963 | 0.563 | 0.569 | 0.475 | 0.59 | 0.492 | 0.795 | 0.676 | 0.801 | 0.738 | 0.693 | 0.161 | 0.344 | 0.32 | 0.331 | 0.27
14 | CAL-12T | 1.27 | 1.13 | 1.09 | 1.16 | 1.39 | 0.382 | 0.47 | 0.257 | 0.43 | 0.417 | 1.03 | 0.976 | 1.11 | 1.15 | 1.05 | 0.327 | 0.322 | 0.515 | 0.43 | 0.5
15 | ChaGo-K-1 | 1.02 | 0.919 | 0.766 | 0.931 | 0.82 | 0.788 | 0.608 | 0.797 | 0.796 | 0.791 | – | – | – | – | – | 0.59 | 0.555 | 0.591 | 0.266 | 0.237
16 | COR-L 105 | 1.01 | 1.34 | 0.992 | 1.01 | 0.672 | 0.555 | 0.418 | 0.399 | 0.463 | 0.31 | 0.93 | 0.708 | 1.08 | 0.891 | 0.909 | 0.349 | 0.216 | 0.399 | 0.363 | 0.398
17 | NCI-H1944 | 1 | 0.877 | 0.752 | 0.804 | 0.759 | 0.374 | 0.357 | 0.308 | 0.376 | 0.33 | 0.674 | 0.751 | 0.869 | 0.789 | 0.766 | – | 0.201 | 0.195 | 0.212 | 0.217
